{"source": "patent US9420780B2", "about": "“Composition, method for producing the composition, and phytosanitary formulation containing same” (RHODIA OPERATIONS, priority 2011, dated 2016)", "assay": "Solubility of agrochemical active ingredients in the solvent compositions: visual observation at 25° C., at 0° C. for 7 days (CIPAC MT39), and at 0° C. with nucleation", "type": "physicochemical", "details": "tebuconazole 300 g/L EC", "method": "1. Description of the Tests Performed: The formulations were prepared by dilution of various active ingredients reported in the table here below in the compositions 1 to 4 (solvents according to the invention) synthesised here above: a) Visual observation at 25° C.: the appearance of the formulation is noted and the possible presence of crystals is eventually recorded. b) Visual observation at 0° C.: the formulation is placed for a period of 7 days at 0° C. and the appearance of the formulation is noted and the possible presence of crystals is eventually recorded (CIPAC test MT39). c) Visual observation at 0° C. with nucleation (for introduction into the liquid of a crystal of the pure active ingredient): […] The appearance of the formulation is noted and the possible presence of crystals or growth of the crystal introduced is eventually recorded. The active ingredients used are commercially available.", "data": [{"smiles": "CN1CCCC1=O", "note": "[Solvent 6, N-methylpyrrolidone]", "values": [{"measurement": "State of the solution at +25° C.", "value": "Clear"}, {"measurement": "State of the solution at 0° C.", "setting": "7 days at 0° C.", "value": "Clear"}, {"measurement": "State of the solution at 0° C. after seeding", "setting": "crystal introduced, further 7 days at 0° C.", "value": "Crystal"}]}]}
